# Laboratory results from US20250230193A1, “CYCLIC COMPOUND HAVING SELECTIVE KRAS INHIBITORY EFFECT ON HRAS AND NRAS” (CHUGAI SEIYAKU KABUSHIKI KAISHA, priority 2022, published 2025).
# How the values were obtained:
# [1] = molecular target: GDP-bound HRAS wild-type protein (Homo sapiens, UniProt P01112); assay: Binding to HRAS by surface plasmon resonance (SPR), Single Cycle Kinetics; conditions: for HRAS/KRAS (ratio of KD value with respect to HRAS to KD value with respect to KRAS): GDP-bound HRAS wild-type vs GDP-bound KRAS wild-type
# [2] = molecular target: GDP-bound NRAS wild-type protein (Homo sapiens, UniProt P01111); assay: Binding to NRAS by surface plasmon resonance (SPR), Single Cycle Kinetics; conditions: for NRAS/KRAS (ratio of KD value with respect to NRAS to KD value with respect to KRAS): GDP-bound NRAS wild-type vs GDP-bound KRAS wild-type
# GDP-bound NRAS wild-type protein, sequence (P01111 whole entry): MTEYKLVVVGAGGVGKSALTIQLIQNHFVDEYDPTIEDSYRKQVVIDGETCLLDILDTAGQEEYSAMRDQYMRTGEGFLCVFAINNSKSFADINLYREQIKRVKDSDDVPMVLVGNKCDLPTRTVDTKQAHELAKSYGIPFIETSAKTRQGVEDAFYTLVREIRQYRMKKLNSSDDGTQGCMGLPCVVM
# GDP-bound HRAS wild-type protein, sequence (P01112 whole entry): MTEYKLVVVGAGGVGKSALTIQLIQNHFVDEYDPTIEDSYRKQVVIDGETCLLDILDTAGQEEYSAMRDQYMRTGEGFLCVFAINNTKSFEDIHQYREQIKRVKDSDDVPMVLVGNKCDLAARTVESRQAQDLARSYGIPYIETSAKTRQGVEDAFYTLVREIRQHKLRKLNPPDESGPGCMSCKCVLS
structure (smiles),measurement,setting,value
CC[C@H](C)[C@@H]1NC(=O)[C@H](COC)N(C)C(=O)C[C@@H](C(=O)N2CCOCC2)N(C)C(=O)[C@H](C2CCCC2)N(C)C(=O)C2(CCC2)NC(=O)[C@@H]2CCN2C(=O)[C@H](CCc2cc(F)c(C(F)(F)F)c(F)c2)NC(=O)CN(C)C(=O)[C@H](Cc2ccc(C(F)(F)F)cc2)N2CCCCC[C@@H](C2=O)N(C)C(=O)CN(C)C1=O [PP0840],HRAS/KRAS (ratio of KD value with respect to HRAS to KD value with respect to KRAS),"[1]; KD ratio, SPR",B (a compound having 3 or more and less than 10 is denoted as B)
same,NRAS/KRAS (ratio of KD value with respect to NRAS to KD value with respect to KRAS),"[2]; KD ratio, SPR",B (a compound having 3 or more and less than 10 is denoted as B)
CCO[C@@H]1C[C@H]2C(=O)NC3(CC(C)(C)C3)C(=O)N(C)[C@@H](C(CC)CC)C(=O)N(C)[C@H](C(=O)N3CCCC3)CC(=O)N(C)[C@H]3CCC/C=C/c4ccc(cc4)C[C@@H](C(=O)N(C)CC(=O)N[C@@H](CCc4ccc(Cl)c(Cl)c4)C(=O)N2C1)N1CC/C=C\C[C@@H](C1=O)N(C)C(=O)CN(C)C(=O)[C@H]([C@@H](C)CC)NC3=O [PP2581],HRAS/KRAS (ratio of KD value with respect to GDP-bound HRAS wild-type protein to KD value with respect to KRAS),[1]; class symbols,A (a compound having 10 or more and less than 20 is denoted as A)
same,NRAS/KRAS (ratio of KD value with respect to GDP-bound NRAS wild-type protein to KD value with respect to KRAS),[2]; class symbols,AA (a compound having 20 or more is denoted as AA)
CC[C@H](C)[C@@H]1NC(=O)[C@H](CC)N(C)C(=O)C[C@@H](C(=O)N(C)C)N(CC)C(=O)[C@H](C2CCCC2)N(C)C(=O)C2(CCC2)NC(=O)[C@@H]2CCCCN2C(=O)[C@H](CCc2cc(F)c(C(F)(F)F)c(F)c2)NC(=O)CN(C)C(=O)[C@H](Cc2ccc(C(F)(F)F)cc2)N2CCCC[C@@H](C2=O)N(C)C(=O)CN(C)C1=O [PP0661],HRAS/KRAS (ratio of KD value with respect to GDP-bound HRAS wild-type protein to KD value with respect to KRAS),[1]; SPR,B (a compound having 3 or more and less than 10 is denoted as B)
same,NRAS/KRAS (ratio of KD value with respect to GDP-bound NRAS wild-type protein to KD value with respect to KRAS),[2]; SPR,C (A compound having a KD ratio of 0.1 or more and less than 3 is denoted as C)
CCO[C@@H]1C[C@H]2C(=O)NC3(CCC3)C(=O)N(C)[C@@H](C3CCCC3)C(=O)N(C)[C@H](C(=O)N(C)C)CC(=O)N(C)[C@@H](Cc3cccc(Cl)c3)C(=O)N[C@@H]([C@@H](C)CC)C(=O)N(C)CC(=O)N(C)[C@H]3CCCCCN(C3=O)[C@@H](Cc3ccc(C(F)(F)F)cc3)C(=O)N(C)CC(=O)N[C@@H](CCc3cc(F)c(C(F)(F)F)c(F)c3)C(=O)N2C1 [PP0939],HRAS/KRAS (ratio of KD value with respect to HRAS to KD value with respect to KRAS),"[1]; KD ratio, SPR",B (a compound having 3 or more and less than 10 is denoted as B)
same,NRAS/KRAS (ratio of KD value with respect to NRAS to KD value with respect to KRAS),"[2]; KD ratio, SPR",B (a compound having 3 or more and less than 10 is denoted as B)
CCOC[C@H]1C(=O)N[C@@H]([C@@H](C)CC)C(=O)N(C)CC(=O)N(C)[C@H]2C/C=C\CCN(C2=O)[C@@H](CC2CCC(F)(F)CC2)C(=O)N(C)CC(=O)N[C@@H](CCc2ccc(C(F)(F)F)c(Cl)c2)C(=O)N2C[C@H](OCC)C[C@H]2C(=O)NC2(CC(C)(C)C2)C(=O)N(C)[C@@H](C(CC)CC)C(=O)N(C)[C@H](C(=O)N(C)C)CC(=O)N1C [PP2460],HRAS/KRAS (ratio of KD value with respect to HRAS to KD value with respect to KRAS),[1]; SPR,A (a compound having 10 or more and less than 20 is denoted as A)
same,NRAS/KRAS (ratio of KD value with respect to NRAS to KD value with respect to KRAS),[2]; SPR,A (a compound having 10 or more and less than 20 is denoted as A)
CC[C@H](C)[C@@H]1NC(=O)[C@H](CC(C)C)N(C)C(=O)C[C@@H](C(=O)N2CCOCC2)N(C)C(=O)[C@H](C2CCCC2)N(C)C(=O)C2(CCC2)NC(=O)[C@@H]2[C@H]3C[C@H]3CN2C(=O)[C@H](CCc2cc(F)c(C(F)(F)F)c(F)c2)NC(=O)CN(C)C(=O)[C@H](Cc2ccc(C(F)(F)F)cc2)N2CCCCC[C@@H](C2=O)N(C)C(=O)CN(C)C1=O [PP0819],HRAS/KRAS (ratio of KD value with respect to HRAS to KD value with respect to KRAS),"[1]; KD ratio, SPR",B (a compound having 3 or more and less than 10 is denoted as B)
same,NRAS/KRAS (ratio of KD value with respect to NRAS to KD value with respect to KRAS),"[2]; KD ratio, SPR",A (a compound having 10 or more and less than 20 is denoted as A)
CCO[C@@H]1C[C@H]2C(=O)NC3(CC(C)(C)C3)C(=O)N(C)[C@@H](C(CC)CC)C(=O)N(C)[C@H](C(=O)N3CCCC3)CC(=O)N(C)[C@@H](C)C(=O)N[C@@H]([C@@H](C)CC)C(=O)N(C)CC(=O)N(C)[C@H]3C/C=C\CCN(C3=O)[C@@H](Cc3ccc(C(F)(F)F)cc3)C(=O)N(C)CC(=O)N[C@@H](CCc3ccc(C(F)(F)F)c(OC)c3)C(=O)N2C1 [PP2163],HRAS/KRAS (ratio of KD value with respect to HRAS to KD value with respect to KRAS),[1]; SPR,A (a compound having 10 or more and less than 20 is denoted as A)
same,NRAS/KRAS (ratio of KD value with respect to NRAS to KD value with respect to KRAS),[2]; SPR,A (a compound having 10 or more and less than 20 is denoted as A)
